Assay results published in patent publication US20020039601A1, “Cancer cell growth suppressor and cell differentiation inducer and method for manufacturing the same” (priority 2000, published 2002).

Assays:
[1] = system: HL-60 cells; conditions: HL60 cells, cited from earlier work
[2] = system: HL-60 cells; assay: Human leukemia differentiation inducing test (NBT reducing ability); format: cell-based; conditions: HL60 cells
Procedure: The differentiation inducing test using HL-60 cells, which are leukemia cells, was performed according to “New Cultured Cell Experiment Method” (written by Toshio Kuroki, on pages 286-289, published by Yodosha), “Jpn. J-Cancer” (Res. 81, 807-812, August 1990), and “Clinical Test Method” written by Izumi Kamei, page 358, published by Kinbara Shuppan) to examine the differentiation inducing ability with the NBT reducing ability as an index.
It is known that for HL60 cells, differentiation is induced by retinoic acid, DMSO or active type vitamin D3. Active type vitamin D3 (medicine for external use, treatment of psoriasis) and all-trans retinoic acid (ATRA) are used as oral medicine for treating leukemia. When leukemia cells differentiate, azurophile granules in the cells reduce. If they differentiate into granulocyte, cell nucleus segment. […] As a convenient marker for differentiation induction of leukemia cells, one method is to measure nitro blune tetrazolium (NBT) reducing ability.
The NBT test uses the fact that when promyelocytic leukemia cells such as HL60 differentiate into monocyte/macrophage, production of active oxygen increases. That is to say, formation of insoluble formozan produced when NBT is reduced due to oxidation/reduction reaction by the active oxygen is used as a marker of differentiation. Active vitamin D3 has a differentiating ability at 10^−9 to 10^−6 M, ATRA at 10^−8 to 10^−6 M, and DMSO at 1.2 to 1.3%. At the respective maximum concentrations, they can differentiate by about 90% or over. Judging by the NBT reducing ability, the results were examined.

[3] = system: carcinoma strain of the colon (Colo201 cells); assay: CD-DST cancer cell growth suppression test, Colo201; format: cell-based, human; conditions: 67.6 μg of capsanthin (FIG. 6)
Text: Employing a drug sensitivity test method (CD-DST method), Toma-pi water-soluble component condensed liquid of different concentrations was examined for growth suppressing effect at the contact time set at seven days.
The CD-DST method herein referred to is a well-known experiment method called a collagen gel drop method, and its steps are shown in FIG. 1. Its details are also described in “Establishment of Collagen Gel Droplet Embedded Culture Drug Sensitivity Test (CD-DST) and consideration about its clinical utility” in “Cancer and Chemical Treatment” (published in 1995, vol.22, 1933-1939 pages).
As a method of cultivating cancer cells, a human cancer cell first generation cultivation system kit (Plymaster made by Nitta Gelatine Co.), was used and cells were cultivated according to a normal method (reference document J. Jpn. Soc. Cancer Ther. 29(7):946-956, 1994).
The growth suppressing effect was judged in terms of suppressing percentage (T/C%) which is the ratio of a treated group to an untreated group (control group). Units μg and mg shown in FIGS. 2-7 show the concentrations of Toma-pi water-soluble components in terms of the weight of Toma-pi powder (dried powder of Capsicum Annuum L.Var.grossumn) used as raw material for water extracting. It is hereinbelow referred to as “converted concentration of Toma-pi water-soluble components”.

## CC1=C(/C=C/C(C)=C/C=C/C(C)=C/C(=O)O)C(C)(C)CCC1 [ATRA, all-trans retinoic acid]
[1]
  concentration having differentiating ability: 10^−8 to 10^−6 M

## C[S+](C)[O-] [DMSO]
[1]
  concentration having differentiating ability: 1.2 to 1.3%

## CC1=C(/C=C/C(C)=C/C=C/C(C)=C/C=C/C=C(C)/C=C/C=C(C)/C=C/C(=O)[C@]2(C)C[C@@H](O)CC2(C)C)C(C)(C)C[C@H](O)C1 [capsanthin]
[2]; capsanthin 200 μg with active type vitamin D3 (FIG. 9)
  active type vitamin D3 concentration from which differentiation was promoted in combination: ≥ 75 pM
[2]; capsanthin 400 μg with active type vitamin D3 (FIG. 9)
  active type vitamin D3 concentration at which differentiation was promoted in combination: 10^−11 M
[3]
  growth suppression: 24%

## active type vitamin D3
[1]; 10^−10 M, alone
  differentiating ability: does not ordinarily show any differentiating ability
[1]
  concentration having differentiating ability: 10^−9 to 10^−6 M
[2]; 10^−9 M
  NBT reducing rate: about 5%
